From patent publication US20250084041A1, “ANTIMICROBIAL COMPOUNDS AND METHODS” (Curza Global, LLC, priority 2021, published 2025)
Structures can show the parent of a compound that is named as a salt. Where two headings read alike, the source gives them in different places.

Assays:
P. aeruginosa (Pa) = assay: Broth microdilution MIC, P. aeruginosa; assay type: cell-based; conditions: Pseudomonas aeruginosa, read-out: Pa + bicarb 25 (MIC)
Method: (§1) A certified BSL-2 laboratory was used for testing. Compounds were evaluated using the broth microdilution minimum inhibitory concentration (MIC) and minimum bactericidal concentration (MBC) assays defined by Clinical and Laboratory Standards Institute (CLSI) in the M26-A guideline against S. aureus (Sa), E. coli (Ec), K. pneumoniae (Kp), A. baumannii (Ab), E. faecalis (Ef) and P. aeruginosa (Pa).
(§2) MICs were determined using the Clinical Laboratory and Standards Institute (CLSI) Broth Microdilution Method with slight modification. Clinical and Laboratory Standards Institute (2012). “Methods for dilution antimicrobial susceptibility tests for bacteria that grow aerobically; approved standard, 9th ed. M07-A9. Clinical and Laboratory Standards Institute, Wayne, PA.” Serial two-fold dilutions of compounds are prepared in sterile clear round-bottom 96-well plates.
(§3) To prepare microdilution trays, two-fold dilutions of antimicrobial agent are prepared in growth medium: Cation-Adjusted Mueller-Hinton Broth (CAMHB), or CAMHB supplemented with sodium bicarbonate (25 mM final concentration prepared from a 1.0 M stock solution) or CAMHB supplemented with heat inactivated human serum (Fisher Cat. #BP2657100) 0-50% by adding 200 μL of the highest concentration to be tested (64 μg/mL, for example) in row A, mixing and transferring 100 μL from row A to 100 μL growth medium in row B, then repeating the mixing and transferring through row H of the 96-well plate, discarding the excess 100 μL remaining. This slight modification to the CLSI protocol enables evaluation of MICs for 3 compounds per plate in triplicate, albeit with only 8 compound dilutions (CLSI protocol enables 2 compounds in triplicate with 10 dilutions). Bacterial suspensions are added to a final concentration of 5×10^4 CFU/well by adding 5 μL of a 1:10 dilution of a 0.5 McFarland suspension (1×10^8 CFU/mL) for each bacterium evaluated. Bacterial suspensions were prepared using the growth method described by CLSI. Well-isolated colonies (3-5 from an agar plate) were selected using a sterile loop and used to inoculate a tube containing 4 mL of CAMHB. The cultures are incubated at 35±2° C. until it achieves or exceeds the turbidity of the 0.5 McFarland standard, determined by measuring A600nm (usually two to six hours). When growth exceeds a 0.5 McFarland standard, the turbidity is adjusted with broth to be equivalent to a 0.5 McFarland standard.

[1] = biological target: Rabbit Reticulocyte Lysate; assay: Rabbit Reticulocyte Lysate: inhibition of eukaryotic protein synthesis (luciferase); assay type: biochemical; conditions: 30° C. 90 minutes, read-out: Retic. IC50
Method: Inhibition of eukaryotic protein synthesis was determined using the Rabbit Reticulocyte Lysate System, Nuclease-Treated from Promega (catalog #L-4960) with slight modifications to the manufacturer's protocol. Compounds were serial diluted in 0.5 mL microcentrifuge tubes by mixing and transferring 50 μL from the highest concentration to 50 μL of water, mixing and transferring 50 μL of this 2-fold dilution to 50 μL of water. This mixing and transferring was repeated so that there are a total of 8 tubes with serial dilutions of compound at 10× the desired screening concentration that are ultimately diluted to 1× by the addition of rabbit reticulocyte luciferase synthesis mixture. Serial dilutions of compounds were added ([…]) to wells in a black round bottom 96-well plate. Water (2.5 μL) was used as a “no inhibitor” control in 4 wells/plate. No RNA control reaction mixture ([…]; see below) was used as a control in 4 wells/plate for background luminescence. Rabbit reticulocyte luciferase synthesis mixture (22.5 μL; see below) was added to wells with compounds or water mixture and incubated at 30° C. for 90 minutes. Luciferase assay reagent (25 μL) was added with luminescence measured using a BioTek Synergy HTX plate reader. % Inhibition was determined relative to no inhibitor controls.
• 1,000 μL rabbit reticulocyte lysate • 5.7 μL Luciferase Control RNA (1 μg/μL) • 26 μL complete amino acid mixture • 395 μL water
• 70 μL rabbit reticulocyte lysate • 2 μL complete amino acid mixture • 28 μL water

A. baumannii (Ab) = assay: Broth microdilution MIC, A. baumannii; assay type: cell-based; conditions: Acinetobacter baumannii, read-out: Ab + bicarb 25 (MIC)
Method: as §1, §2, §3

S. aureus (Sa) = assay: Broth microdilution MIC, S. aureus; assay type: cell-based; conditions: Staphylococcus aureus, read-out: Sa + bicarb 25 (MIC)
Method: as §1, §2, §3

E. coli S30 extract = assay: E. coli S30 extract: inhibition of bacterial protein synthesis (luciferase); assay type: biochemical; conditions: 37° C. 1 hour
Method: E. coli S30 extract: Inhibition of bacterial protein synthesis was determined using the E. coli S30 Extract System for Circular DNA (Promega catalog #L-2010) and Luciferase Assay Reagent (Promega catalog #E1500) with slight modifications to a published protocol. Fyfe, C., Sutcliffe, J. A. and Grossman, T. H. (2012) “Development and characterization of a Pseudomonas aeruginosa in vitro coupled transcription-translation assay system for evaluation of translation inhibitors” J. Microbiol. Methods 90(3), 256-261.
Compounds were serial diluted in 0.5 mL microcentrifuge tubes by mixing and transferring 50 μL from the highest concentration to 50 μL of water, mixing and transferring 50 μL of this 2-fold dilution to 50 μL of water. This mixing and transferring was repeated so that there are a total of 8 tubes with serial dilutions of compound at 10× the desired screening concentration that are ultimately diluted to 1× by the addition of S30 luciferase synthesis mixture. Serial dilutions of compounds were added (2 μL) to wells in a black round bottom 96-well plate. Water (2 μL) was used as a “no inhibitor” control in 4 wells/plate. No DNA control reaction mixture (20 μL; see below) was used as a control in 4 wells/plate for background luminescence. S30 luciferase synthesis mixture (18 μL; see below) was added to wells with compounds or water mixture and incubated at 37° C. for 1 hour. Reactions were stopped by transferring to 4° C. refrigerator for 5 minutes then 25 μL of luciferase activity mix was added. Luminescence was measured using a BioTek Synergy HTX plate reader. % Inhibition was determined relative to no inhibitor controls.
• 445 μL S30 extract, circular • 712 μL S30 Premix without amino acids • 4.45 μL pBESTluc™ DNA (1 μg/μL) • 78 μL complete amino acid mixture • 267 μL water
• 20 μL S30 extract, circular • 32 μL S30 Premix without amino acids • 7 μL complete amino acid mixture • 21 μL water

E. faecalis (Ef) = assay: Broth microdilution MIC, E. faecalis; assay type: cell-based; conditions: Enterococcus faecalis, read-out: Ef + bicarb 25 (MIC)
Method: as §1, §2, §3

E. coli (Ec) = assay: Broth microdilution MIC, E. coli; assay type: cell-based; conditions: Escherichia coli, read-out: E. coli + bicarb 25 (MIC)
Method: as §1, §2, §3

[2] = P. aeruginosa, CAMHB supplemented with sodium bicarbonate 25 mM
[3] = A. baumannii, CAMHB supplemented with sodium bicarbonate 25 mM
[4] = S. aureus, CAMHB supplemented with sodium bicarbonate 25 mM
[5] = E. faecalis, CAMHB supplemented with sodium bicarbonate 25 mM
[6] = E. coli, CAMHB supplemented with sodium bicarbonate 25 mM

SMILES | MIC (P. aeruginosa (Pa)) [µg/mL] | IC50 [1] [nM] | MIC (A. baumannii (Ab)) [µg/mL] | MIC (S. aureus (Sa)) [µg/mL] | IC50 (E. coli S30 extract) [nM] | MIC (E. faecalis (Ef)) [µg/mL] | MIC (E. coli (Ec)) [µg/mL] | MIC (P. aeruginosa (Pa); [2]) [µg/mL] | MIC (A. baumannii (Ab); [3]) [µg/mL] | MIC (S. aureus (Sa); [4]) [µg/mL] | MIC (E. faecalis (Ef); [5]) [µg/mL] | MIC (E. coli (Ec); [6]) [µg/mL]
CC(C)(N)C(=O)N1CCN(C(=O)Nc2ccn(C3CCC(CN[C@H]4CC[C@H](N)CC4)CC3)c(=O)n2)CC1 (mixture of isomers) [Compound 11, 4-(2-Amino-2-methylpropanoyl)-N-(1-(4-(((trans-4-aminocyclohexyl)amino)methyl)cyclohexyl)-2-oxo-1,2-dihydropyrimidin-4-yl)piperazine-1-carboxamide hydrochloride salt] | > 32 | ≥ 1000 | > 32 | < 8 | < 500 | < 8 | < 8 | – | – | – | – | –
CN(CC1CC=C(n2ccc(NC(=O)N3CCN(C(=O)C(C)(C)N)CC3)nc2=O)CC1)[C@H]1CC[C@H](N)CC1 (single isomer, unassigned) [Compound 32, trans-4-(2-Amino-2-methylpropanoyl)-N-(1-(4-(((4-aminocyclohexyl)(methyl)amino)methyl)cyclohex-1-en-1-yl)-2-oxo-1,2-dihydropyrimidin-4-yl)piperazine-1-carboxamide hydrochloride salt] | > 32 | ≥ 1000 | > 32 | < 8 | < 500 | 8 to 32 | < 8 | – | – | – | – | –
CC(C)(N)C(=O)N1CCN(C(=O)Nc2ccn(C3=CCC(CN4C[C@@H]5[C@@H](N)[C@@H]5C4)CC3)c(=O)n2)CC1 (single isomer, unassigned) [Compound 33, 4-(2-Amino-2-methylpropanoyl)-N-(1-(4-(((exo)-6-amino-3-azabicyclo[3.1.0]hexan-3-yl)methyl)cyclohex-1-en-1-yl)-2-oxo-1,2-dihydropyrimidin-4-yl)piperazine-1-carboxamide hydrochloride salt] | – | ≥ 1000 | – | – | < 500 | – | – | > 32 | 8 to 32 | < 8 | < 8 | < 8
CC(C)(N)C(=O)N1CCN(C(=O)Nc2ccn(C3=CCC(CN4CCC5(CC4)CC(N)C5)CC3)c(=O)n2)CC1 (single isomer, unassigned) [Compound 36] | – | ≥ 1000 | – | – | < 500 | – | – | 8 to 32 | 8 to 32 | < 8 | < 8 | < 8
CC1(N)CCN(CC2CC=C(n3ccc(NC(=O)N4CCN(C(=O)C(C)(C)N)CC4)nc3=O)CC2)CC1 (single isomer, unassigned) [Compound 37, 4-(2-Amino-2-methylpropanoyl)-N-(1-(4-((4-amino-4-methylpiperidin-1-yl)methyl)cyclohex-1-en-1-yl)-2-oxo-1,2-dihydropyrimidin-4-yl)piperazine-1-carboxamide hydrochloride salt] | > 32 | ≥ 1000 | > 32 | < 8 | < 500 | < 8 | < 8 | – | – | – | – | –
CC(C)(N)C(=O)N1CCN(C(=O)Nc2ccn(C3=CCC(CN[C@H]4CC[C@H](N)CC4)CC3)c(=O)n2)CC1 (single isomer, unassigned) [Compound 39, trans-4-(2-Amino-2-methylpropanoyl)-N-(1-(4-(((4-aminocyclohexyl)amino)methyl)cyclohex-1-en-1-yl)-2-oxo-1,2-dihydropyrimidin-4-yl)piperazine-1-carboxamide hydrochloride salt] | > 32 | ≥ 1000 | > 32 | < 8 | < 500 | < 8 | < 8 | – | – | – | – | –
CCN(CC1CC=C(n2ccc(NC(=O)N3CCN(C(=O)C(C)(C)N)CC3)nc2=O)CC1)[C@H]1CC[C@H](N)CC1 (stereo partly drawn) [Compound 31, trans-4-(2-Amino-2-methylpropanoyl)-N-(1-(4-(((4-aminocyclohexyl)(ethyl)amino)methyl)cyclohex-1-en-1-yl)-2-oxo-1,2-dihydropyrimidin-4-yl)piperazine-1-carboxamide hydrochloride salt] | > 32 | ≥ 1000 | – | < 8 | < 500 | < 8 | < 8 | – | – | – | – | –
